The source of these data is patent publication US12569473B2, “Methods to treat respiratory infection utilizing castanospermine analogs” (60 Degrees Pharmaceuticals, Inc., priority 2022, dated 2026).

Data set [1] in a line: Cytotoxicity, visual examination, HeLa Ohio cells. It counts as cell-based. To be noted: human, compounds tested at 0.3, 3, 30 and 300 microM, unit inferred. The procedure: (§1) The efficacy of celgosivir and castanospermine against RSV and human rhinovirus-14 was assessed in vitro. For RSV studies, embryonic African green monkey kidney cells (MA-104) were grown in minimal essential medium (MEM) supplemented with 0.1% NaHCO3 and 10% fetal bovine serum. When performing antiviral assays, serum was reduced to 2% and […] gentamicin was added to the medium. RSV strain A2 was used for the studies. For rhinovirus studies, the HeLa Ohio cell line was used in place of MA-104 cells.
CPE inhibition assays with visual quantification of antiviral activity and cytotoxicity were performed as described by Sidwell and Huffman (1971) with slight modifications. Sidwell, R. W. and Huffman, J. H. (1971) Use of disposable micro-tissue culture plates for antiviral and interferon induction studies. Appl. Microbiol. 22, […]. […] All compounds were assayed for virus inhibition in quadruplicate and for cytotoxicity in duplicate. For rhinovirus studies, Pirodavir was applied at a concentration of 0.001-1 μg/ml as the positive control compound. For RSV studies, the positive control compound was Ribavirin applied at a concentration of 0.5-500 μg/ml. For each compound, two wells were set aside as uninfected, untreated cell controls per test and four wells per test received virus only and represented controls for virus replication. […] For all CPE-based assays, the 50% effective concentration (EC50) was calculated by regression analysis using the means of the CPE ratings at each concentration of compound. Morphological changes due to compound cytotoxicity were graded on a scale of 0-5; grade 5 was defined as 100% cytotoxicity. The 50% cytotoxic dose (IC50) was calculated by regression analysis. A selective index (S.I.) was calculated for each compound (SI.=(IC50)/(EC50)).

The next data set relates to RSV strain A2. Description: Neutral red assay of CPE inhibition, RSV. In kind it is cell-based. The settings on record: human respiratory syncytial virus, MA104, MA-104 cells, compounds tested at 0.3, 3, 30 and 300 microM, unit inferred. The procedure:
as §1
CPE inhibition assays with visual quantification of antiviral activity and cytotoxicity were performed as described by Sidwell and Huffman (1971) with slight modifications. Sidwell, R. W. and Huffman, J. H. (1971) Use of disposable micro-tissue culture plates for antiviral and interferon induction studies. Appl. Microbiol. 22, […]. […] All compounds were assayed for virus inhibition in quadruplicate and for cytotoxicity in duplicate. For rhinovirus studies, Pirodavir was applied at a concentration of 0.001-1 μg/ml as the positive control compound. For RSV studies, the positive control compound was Ribavirin applied at a concentration of 0.5-500 μg/ml. For each compound, two wells were set aside as uninfected, untreated cell controls per test and four wells per test received virus only and represented controls for virus replication. […] A selective index (S.I.) was calculated for each compound (SI.=(IC50)/(EC50)).
Neutral red assay of CPE inhibition and cytotoxicity was performed by a modified method as described by Cavenaugh et al. (1990). […] Briefly, medium was removed from each well of a plate scored for CPE from the visual CPE inhibition assay, 0.2 ml of neutral red (0.034% in PSS) was added to each of the wells of that plate and the plate incubated for 2 h at 37° C. in the dark. […] Absorbances at 540 and 450 nm were read with a microplate reader (Bio-Tek EL 1309; Bio-Tek Instruments). […] Absorbance values were expressed as percentages of untreated controls and EC50 and IC50 values were calculated by regression analysis

The next data set has as its system RSV [strain A/A2]. Description: Nose and lung viral titers in RSV-infected cotton rats. It counts as in vivo, Cotton rats [Sigmodon hispidus]. To be noted: Day 5 post infection, celgosivir 25, 50 or 100 mg/kg BID from one day before or after infection, synagis 2.5 mg/kg i.m. once per day, vs vehicle. The protocol: Cotton rats [Sigmodon hispidus, 2 male & 3 female, 6-8 weeks old] provided with standard rodent chow and water ad lib, were infected intranasally with RSV [strain A/A2, 10^5 pfu] on Day 0. Animals received celgosivir [25, 50 or 100 mg/kg BID for total daily doses of 50, 100 or 200 mg/kg] daily beginning one day before or after infection and were sacrificed on Day 5-post-infection for histopathology, qPCR, and viral load assessment. Control groups included a [i] positive control Synagis [2.5 mg/kg, i.m, once per day from the first day post-infection], [ii] vehicle control in which vehicle was administered twice per day beginning one day prior to RSV infection, [iii] a vehicle control group that were mock-infected with PBS for which treatment was initiated beginning one day prior to infection, and [iv] an untreated group mock infected with PBS that received no treatment. Animals were weighed on Day −1 and Day 5, and plasma was obtained by retro-orbital bleed on the same days.
The RSV strain for inoculation [A/A2 (RSV A/A2) (ATCC, Manassas, VA)] was propagated in HEp-2 cells after serial plaque-purification to reduce defective-interfering particles. A pool of virus designated containing approximately 3.0×10^8 pfu/mL in sucrose stabilizing media was used in the experiment. This stock of virus was stored at −80° C. and was previously characterized in vivo in the cotton rat model and validated for upper and lower respiratory tract replication.
Viral Titers: Nose and lung homogenates were centrifuged and diluted in EMEM. Confluent HEp-2 monolayers were infected in duplicate with diluted homogenates in 24-well plates. Following one hour incubation at 37° C. […] Plaques were counted and virus titer determined as geometric mean plaque-forming units per gram of tissue±standard error for all animals in a group at a given time.
Statistics: Group means for each parameter were evaluated by one-way ANOVA, then individual group means were compared [t-test, with multiple comparison correction] to the RSV-infected, vehicle-treated control group. […]

pEC50: −log10 of the molar value. Structures can show the parent of a compound that is named as a salt. A value given as a limit tells only on which side of the number the result lay.

As a reminder, the CC50 is the concentration giving 50% cytotoxicity. The low end stands for harm at low concentration, the high end for better tolerance by the cells. One may read the pEC50 as −log10 of the EC50, conventionally taken in molar units. `CCCC(=O)O[C@H]1CN2CC[C@H](O)[C@@H]2[C@@H](O)[C@@H]1O` [Celgosivir HCL] gave a CC50 at 6 days in data set [1] greater than 300 µM. In addition, the pEC50 in the data set on RSV strain A2 is 4.47. Further, the “nasal and lung viral titer” value is “no effect on viral titer in either the nose or the lung” with RSV [strain A/A2] (listed as Celgosivir) and “did not” in the data set on RSV [strain A/A2] (listed as celgosivir).
